In patent US20060239999A1, “Preventive and/or therapeutic drugs for asthma” (priority 2002, published 2006):

Legend:
GPR4 = target: T1, GPR4 (Homo sapiens, UniProt P46093); assay: Antagonistic action on GPR4 (luciferase reporter in GPR4 assay cells induced by 17β-estradiol); assay type: cell-based; details: 10 nmol/L 17β-estradiol, 6 hours, luciferase luminescence
T1 construct: expressed in transfected cells; host or cells: KJMGER8 (Namalwa KJM-1 human B-cell line stably expressing Gal4-ER), co-transfected with pAGal9-GPR4 and the CRE-luciferase reporter pACREpluc
T1 sequence (P46093 whole entry, the tested form may be a part): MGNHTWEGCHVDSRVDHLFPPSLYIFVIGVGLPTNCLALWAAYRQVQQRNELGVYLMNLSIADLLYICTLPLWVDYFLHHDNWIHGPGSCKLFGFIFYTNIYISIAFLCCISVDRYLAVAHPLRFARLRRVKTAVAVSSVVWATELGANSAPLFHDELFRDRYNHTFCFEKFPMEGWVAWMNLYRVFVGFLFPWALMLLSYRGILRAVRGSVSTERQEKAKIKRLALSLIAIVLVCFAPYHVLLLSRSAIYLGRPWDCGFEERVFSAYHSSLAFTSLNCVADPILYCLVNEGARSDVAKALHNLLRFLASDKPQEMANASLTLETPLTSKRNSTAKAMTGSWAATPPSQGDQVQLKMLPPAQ
Method: Cells for GPR4 assay prepared in Referential Example 61 (said assay cells express GPR4 by stimulation with 17β-estradiol) were seeded on white plates at the rate of 10^5 cells/well, and a solution where 17β-estradiol (manufactured by Sigma) was diluted with a medium so as to make 10 nmol/L in the reaction solution and test compounds were added to the plate and the mixture was incubated at 37° C. for 6 hours in a 5% CO2 incubator. After that, a Steady Glo Luciferase Assay System (manufactured by Promega) solution was added to stop the reaction and the amount of luminescence during one second was measured using a Top Count (Packard, Meriden, Conn., U.S.
Activity of the each of test compounds (antagonistic action) was expressed by an inhibition rate calculated on the basis of counts per second in the presence or absence of 17β-estradiol as shown by the following formula. IC50 value was calculated from the inhibition rate by a linear approximate analysis of the Logit-Log conversion method.
In the formula, A, B and C each have the following meaning, respectively.
A: counts per second when 17β-estradiol and the test compound were added
B: counts per second when neither 17β-estradiol nor the test compound was added
C: counts per second when only 17β-estradiol was added
Inhibition Rate (%) [1−{(A−B)/(C−B)}]×100
1 μg of mRNA derived from human lung (manufactured by Clontech) was used and a single-stranded cDNA was synthesized using a SUPERSCRIPT First-Stranded Synthesis System for RT-PCR (manufactured by Gibco). GPR4 cDNA was prepared by PCR using a solution (5 μl) where said single-stranded cDNA was diluted with water to an extent of 250-fold as a template and synthetic DNA having nucleotide sequences represented by SEQ ID NO: 7 and NO: 8 as a GPR4 gene-specific primer. Sequence of the GPR4 gene-specific primer was designed on the basis of sequence information of GPR4 gene (GenBank Accession No. U21051). With regard to an enzyme, PfuTurbo DNA Polymerase (manufactured by Stratagene) was used. With regard to a buffer for conducting the PCR, a buffer of 10-fold concentration attached to the enzyme was used. The PCR was conducted by treating at 95° C. for 5 minutes and conducting 30 cycles of reaction each comprising at 94° C. for 1 minute, at 60° C. for 1 minute and at 72° C. for 1 minute using a thermal cycler DNA engine (manufactured by MJ Research).
2 μg of plasmid pAGal9-GPR4 with inducible expression of GPR4 and 2 μg of reporter plasmid pACREpluc were co-transferred into 6×10^6 cell of KJMGER8 by the above-mentioned electroporation. The transformants were suspended in 8 ml of an RPMI 1640-ITPSG medium and cultured in a CO2 incubator at 37° C. for 24 hours. After the cultivation, blasticidin S (2.0 μg/ml), hygromycin B (300 μg/ml) and geneticin (500 μg/ml) were added and cultivation was carried-out for 14 days more, and stable transformants (called GPR4 assay cells) were obtained. The transformants were subcultured in an RPMI 1640-ITPSG medium containing blasticidin S (2.0 μg/ml), hygromycin B (300 μg/ml) and geneticin (500 μg/ml).

BALB/c male mice [1] = assay: Suppressive effect on antigen-induced eosinophil infiltration in airway (bronchoalveolar lavage fluid); assay type: in vivo; details: for Eosinophil numbers in bronchoalveolar lavage fluid: 24 hours after final antigen inhalation, compound 1 100 mg/kg orally 1 hour before and 6 hours after each antigen, prednisolone 30 mg/kg orally once before each antigen; for eosinophil numbers decreased as compared with the positive control group: compound 1 100 mg/kg orally, prednisolone 30 mg/kg orally
Method: (§1) Suspention prepared by mixing of 50 μg of ovalbumin and 1 mg of aluminum hydroxide in a physiological saline solution (Otsuka Physiological Saline; manufactured by Otsuka. Pharmaceutical) was intraperitoneally administered to BALB/c male mice (7 weeks age) for two times with an interval of one week to sensitize and, after 14, 18 and 22 days from the final sensitization, 1% solution of ovalbumin in a physiological saline solution or a physiological saline solution (a negative control group) was inhaled for 30 minutes respectively to induce an antigen-antibody reaction. In the case of measurement of bronchoconstriction, compound 1 was suspended in a 0.5% aqueous solution of methylcellulose (solvent) and, 1 hour before inhalation of antigen after 14 days from the final sensitization 100 mg/kg of the suspention was orally administered or, 5 minutes before that, 30 mg/kg was intraperitoneally administered. In the case of measurement of airway hyperreactivity or eosinophil infiltration in airway, compound 1 was suspended as mentioned above and, after 14, 18 and 22 days from the final sensitization, 100 mg/kg of the suspention was orally administered 1 hour before and 6 hours after inhalation of each antigen. As a reference drug, prednisolone which is a steroid used for the treatment of asthma was orally administered at a dose of 30 mg/kg (as a solution being suspended in 0.5% aqueous solution of methylcellulose) once, 1 hour before inhalation of each antigen after 14, 18 and 22 days from the final sensitization. In a positive control group, the solvent was administered instead of a suspension of a test compound. […]
(§2) With regard to the bronchoconstriction, airway resistance (penh) was evaluated by a measuring apparatus for respiration function of mice (BioSystems XA; Buxco Electronics, Inc., Sharon, Conn., U.S.A.) for 30 minutes from immediately after inhalation of antigen after 14 days from the final sensitization and evaluation was conducted by calculating the area under curve during the 30 minutes (AUC0-30 min). Further, after 24 hours from final inhalation of antigen, airway hyperreactivity and eosinophil infiltration in bronchoalveolar lavage fluid were evaluated.
(§3) With regard to eosinophil filtration, total cell numbers in the bronchoalveolar lavage fluid were measured by an automatic measuring apparatus for blood cell count (Celltac α MEK-6158; Nippon Koden, Tokyo), then the smears were prepared by Cytospin 3 (Shandon, Inc., Pittsburgh, Pa., U.S.A.) and evaluation was conducted by a morphological classification under a microscope. Eosinophil numbers were calculated by multiplying the total cell numbers by percentage of eosinophil cells. […]

BALB/c male mice [2] = assay: Suppressive effect on antigen-induced airway hyperreactivity (methacholine inhalation); assay type: in vivo; details: for airway hyperreactivity suppressed as compared with the positive control group: compound 1 100 mg/kg orally, prednisolone 30 mg/kg orally; for AUC of airway hyperreactivity: methacholine 1.5 to 25 mg/ml, compound 1 100 mg/kg orally 1 hour before and 6 hours after each antigen, prednisolone 30 mg/kg orally once before each antigen, mean value±standard error
Method: as §1, §2, §3

BALB/c male mice [3] = assay: Suppressive effect on antigen-induced bronchoconstriction (airway resistance penh); assay type: in vivo; details: for AUC0-30min of the bronchoconstriction: ovalbumin-sensitized mice, mean value±standard error
Method: Suspention prepared by mixing of 50 μg of ovalbumin and 1 mg of aluminum hydroxide in a physiological saline solution (Otsuka Physiological Saline; manufactured by Otsuka. Pharmaceutical) was intraperitoneally administered to BALB/c male mice (7 weeks age) for two times with an interval of one week to sensitize and, after 14, 18 and 22 days from the final sensitization, 1% solution of ovalbumin in a physiological saline solution or a physiological saline solution (a negative control group) was inhaled for 30 minutes respectively to induce an antigen-antibody reaction. In the case of measurement of bronchoconstriction, compound 1 was suspended in a 0.5% aqueous solution of methylcellulose (solvent) and, 1 hour before inhalation of antigen after 14 days from the final sensitization 100 mg/kg of the suspention was orally administered or, 5 minutes before that, 30 mg/kg was intraperitoneally administered. In the case of measurement of airway hyperreactivity or eosinophil infiltration in airway, compound 1 was suspended as mentioned above and, after 14, 18 and 22 days from the final sensitization, 100 mg/kg of the suspention was orally administered 1 hour before and 6 hours after inhalation of each antigen. As a reference drug, prednisolone which is a steroid used for the treatment of asthma was orally administered at a dose of 30 mg/kg (as a solution being suspended in 0.5% aqueous solution of methylcellulose) once, 1 hour before inhalation of each antigen after 14, 18 and 22 days from the final sensitization. In a positive control group, the solvent was administered instead of a suspension of a test compound. (In the case of measurement of bronchoconstriction, the solvent was administered once, 1 hour before inhalation of antigen after 14 days from the final sensitization as for oral administration, or the solvent was administered once 30 minutes before inhalation of antigen after 14 days from the final sensitization as for intraperitoneal administration. In the case of measurement of airway hyperreactivity and eosinophil infiltration in airway, the solvent was administered 1 hour before and 6 hours after inhalation of each antigen after 14, 18 and 22 days from the final sensitization.)
as §2

Structure (SMILES)	IC50 (GPR4) [nM]	Eosinophil numbers in bronchoalveolar lavage fluid (BALB/c male mice [1])	eosinophil numbers decreased as compared with the positive control group (BALB/c male mice [1]) [%]	airway hyperreactivity suppressed as compared with the positive control group (BALB/c male mice [2]) [%]	AUC of airway hyperreactivity (BALB/c male mice [2])	other results
CCc1nc2c(C)cc(C)nc2n1Cc1ccc2c(c1)CCc1cc(CN3CCOCC3)ccc1N2 [Compound 4, 2-(2-Ethyl-5,7-dimethyl-3H-imidazo[4,5-b]pyridin-3-ylmethyl)-8-morpholinomethyl-10,11-dihydro-5H-dibenz[b,f]a zepine]	5.8	–	–	–	–	–
C[C@]12C=CC(=O)C=C1CC[C@@H]1[C@@H]2[C@@H](O)C[C@@]2(C)[C@H]1CC[C@]2(O)C(=O)CO [prednisolone, reference compound]	–	0.76±0.25 ×10^5 per mouse	73	43	269.12±46.7	–
CCc1nc2c(C)cc(C)nc2n1Cc1ccc2c(c1)CCc1cc(CN3CC(C)CC(C)C3)ccc1N2 (centres unmarked) [Compound 5]	14	–	–	–	–	–

Second part, led by results:

IC50 (GPR4) [nM]	Structure (SMILES)	Eosinophil numbers in bronchoalveolar lavage fluid (BALB/c male mice [1])	eosinophil numbers decreased as compared with the positive control group (BALB/c male mice [1]) [%]	airway hyperreactivity suppressed as compared with the positive control group (BALB/c male mice [2]) [%]	AUC of airway hyperreactivity (BALB/c male mice [2])	other results
2.3	CCc1nc2c(C)cc(C)nc2n1Cc1ccc2c(c1)CCc1cc(CN3CCCC3)ccc1N2 [Compound 3, 2-(2-Ethyl-5,7-dimethyl-3H-imidazo[4,5-b]pyridin-3-ylmethyl)-8-(pyrrolidin-1-ylmethyl)-10,11-dihydro-5H-dibenz[b,f]azepine]	–	–	–	–	–
3.2	CCc1nc2c(C)cc(C)nc2n1Cc1ccc2c(c1)CCc1cc(CN3CC=CCC3)ccc1N2 [Compound 2, 2-(2-Ethyl-5,7-dimethyl-3H-imidazo[4,5-b]pyridin-3-ylmethyl)-8-(1,2,5,6-tetrahydropyridin-1-ylmethyl)-10,11-dihydro-5H-dibenz[b,f]azepine]	–	–	–	–	–
4	CCc1nc2c(C)cc(C)nc2n1Cc1ccc2c(c1)CCc1cc(CN3CCN(C)CC3)ccc1N2 [Compound 1, 2-(2-Ethyl-5,7-dimethyl-3H-imidazo[4,5-b]pyridin-3-ylmethyl)-8-(4-methylpiperazin-1-ylmethyl)-10,11-dihydro-5H-dibenz[b,f]azepine]	0.92±0.26 ×10^5 per mouse	67	60	243.23±48.7	bronchoconstriction suppressed as compared with the positive control group (BALB/c male mice [3]; 30 mg/kg intraperitoneally): 105%; bronchoconstriction suppressed as compared with the positive control group (BALB/c male mice [3]; 100 mg/kg orally): 44%; AUC0-30min of the bronchoconstriction (BALB/c male mice [3]; 30 mg/kg intraperitoneally before antigen inhalation): 14.60±0.46; AUC0-30min of the bronchoconstriction (BALB/c male mice [3]; 100 mg/kg orally 1 hour before antigen inhalation): 16.85±0.84
